Test results published in patent US20230138395A1, “PHARMACEUTICAL COMPOSITIONS OF A THERAPEUTIC POLYENE MACROLIDE AND METHODS OF THEIR USE” (priority 2020, published 2023).

Experiment: Drug loading and stability by LC-DAD-QTOF / LC-UV
Assay type: physicochemical
Conditions: high concentrations of ascorbic acid
Description: The sizes and size distributions were measured using dynamic light scattering (Malvern Zetasizer and Nanoparticles Tracking Analyzer (NTA)) in phosphate buffer (pH 7). Dry weight was determined by drying three sample aliquots at 50° C. overnight. Drug loading and stability was determined weighing/pipetting three sample aliquots, dissolution in DMSO, and dilution for LC-DAD-QTOF analysis. The concentration of compound 1A was determined using three samples of amphotericin B USP as a standard. The LC-QTOF method was: • Mobile phases: 0.1% formic acid [A] and acetonitrile [B] • HPLC system: Agilent 1290 HPLC system with a 1290 DAD connected to a QTOF • Column: Polaris 3 C18, 150×2 mm, 3 μm (Varian) • Column thermostat: 30° C. • Flow rate: 0.3 ml/min • Injection volume: 2 μL • Wavelength: 385 nm for measuring compound 1A/AMB, Scan 190-600 nm • Software: MassHunter Qualitative analysis B.0.600 • Post time: 5 min • QTOF was operated in negative electrospray mode (ESI−) • The HPLC gradient is shown in Table 1.

C[C@@H]1[C@H](O)[C@@H](C)/C=C/C=C/C=C/C=C/C=C/C=C/C=C/[C@H](O[C@@H]2O[C@H](C)[C@@H](O)[C@H](N)[C@@H]2O)C[C@@H]2O[C@](O)(C[C@@H](O)[C@H](O)CC[C@@H](O)C[C@@H](O)C[C@@H](O)CC(=O)O[C@H]1C)C[C@H](O)[C@H]2C [Compound 1A]
stability in solution: chemically dehydrated
